Source: US20240246946A1, “MODULATORS OF TREX1” (Constellation Pharmaceuticals, Inc., priority 2021, published 2024)

How the values were obtained:
full length mouse TREX1 = target: T1, full length mouse TREX1 (Mus musculus, UniProt Q91XB0); experiment: mTREX1 Biochemical Assay (fluorescence, dsDNA substrate degradation); details: biochemical, read-out: mTREX1 IC50
T1 construct: N-terminally His-Tev tagged full length mouse TREX1; made in house; host or cells: E. coli
T1 sequence (Q91XB0 1-314): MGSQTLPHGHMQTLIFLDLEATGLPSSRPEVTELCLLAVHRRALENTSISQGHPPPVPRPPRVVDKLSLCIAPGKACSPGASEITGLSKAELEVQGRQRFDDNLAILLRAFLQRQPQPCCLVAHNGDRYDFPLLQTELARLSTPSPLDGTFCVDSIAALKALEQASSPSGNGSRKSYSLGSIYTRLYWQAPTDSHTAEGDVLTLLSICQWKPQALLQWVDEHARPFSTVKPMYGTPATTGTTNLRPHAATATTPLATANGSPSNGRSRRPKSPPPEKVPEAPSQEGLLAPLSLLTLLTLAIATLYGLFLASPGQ
Summary of the method: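 Reaction run 18 h at 25° C. with 60 nM TEX615/quencher-labelled dsDNA and 6 pM mouse TREX1 in Tris buffer (pH 7.4, 5 mM MgCl2, 1.0% DMSO), enzyme having sat 4 h with compound across 10 concentrations. EDTA quench; substrate degradation measured as fluorescence increase.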

full length human TREX1 = target: T2, full length human TREX1 (Homo sapiens, UniProt Q9NSU2); experiment: hTREX1 Biochemical Assay (fluorescence, dsDNA substrate degradation); details: biochemical, read-out: hTREX1 IC50
T2 construct: N-terminally His-Tev tagged full length human TREX1; made in house; host or cells: E. coli
T2 sequence (Q9NSU2 1-314): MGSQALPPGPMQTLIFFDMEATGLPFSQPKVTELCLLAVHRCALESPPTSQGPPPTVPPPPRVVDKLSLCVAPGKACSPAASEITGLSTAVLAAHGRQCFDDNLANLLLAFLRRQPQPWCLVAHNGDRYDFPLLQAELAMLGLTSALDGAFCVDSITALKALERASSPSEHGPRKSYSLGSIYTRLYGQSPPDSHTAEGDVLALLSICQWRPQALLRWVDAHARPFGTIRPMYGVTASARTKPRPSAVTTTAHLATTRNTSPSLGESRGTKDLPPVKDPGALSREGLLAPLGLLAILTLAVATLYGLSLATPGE
Summary of the method: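 Cleavage of 60 nM TEX615/quencher-labelled dsDNA in pH 7.4 Tris buffer with 5 mM MgCl2, 1.0% DMSO, run 18 hours at 25° C, EDTA-quenched; fluorescence read-out.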

hTREX1 = target: T3, hTREX1 (Homo sapiens, UniProt Q9NSU2); experiment: hTREX1 HCT116 Cell Assay (HCT116 dual cells, Lucia luciferase reporter of Type I interferon induction); format: cell-based; details: TREX1i 4 h before pBR322/BstNI transfection, read after 48 h
T3 construct: host or cells: HCT116 dual cells
T3 sequence (Q9NSU2 1-314): T2 sequence (Q9NSU2 1-314)
Summary of the method: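 HCT116 dual cells carrying an ISRE-type STAT1/STAT2-driven secreted Lucia luciferase reporter were pretreated with TREX1 inhibitor for 4 h (≤0.1% DMSO), then transfected with pBR322/BstNI DNA (100 ng/well, Lipofectamine LTX). Luciferase in medium read after 48 h at 37 °C.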

[1] = target: T4, human TREX2 (residues M44-A279) (Homo sapiens, UniProt Q9BQ50); experiment: hTREX2 Biochemical Assay (fluorescence, dsDNA substrate degradation); details: biochemical selectivity for hTREX1 vs hTREX2
T4 construct: human TREX2 (residues M44-A279, expressed in E. coli); made in house; host or cells: E. coli
T4 sequence (Q9BQ50 44-279 isoform Q9BQ50-1): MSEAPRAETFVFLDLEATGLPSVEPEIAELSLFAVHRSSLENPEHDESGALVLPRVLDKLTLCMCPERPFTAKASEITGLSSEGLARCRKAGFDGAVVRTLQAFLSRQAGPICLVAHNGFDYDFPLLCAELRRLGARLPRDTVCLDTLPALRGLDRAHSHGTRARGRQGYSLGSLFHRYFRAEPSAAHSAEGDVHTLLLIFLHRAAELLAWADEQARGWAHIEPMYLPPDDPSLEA
Summary of the method: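 N-His-Tev E. coli enzyme (50 pM) pre-incubated with compound 4 h at 25 °C, then 60 nM TEX615/quencher dsDNA added; 18 h at 25 °C, pH 7.4 Tris buffer with 5 mM MgCl2, 1.0% DMSO. EDTA-quenched; fluorescence 570 ex/615 em from liberated fluorophore, 10-point dose-response.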

Row | SMILES | IC50 (full length mouse TREX1) [µM] | IC50 (full length human TREX1) [µM] | IC50 (hTREX1) [µM] | hTREX1 vs hTREX2 selectivity [1]
1 | Cc1c(C(c2ccccc2C#N)C(C)c2nc(C(=O)Nc3cnoc3)c(O)c(=O)n2C)cnn1C (single isomer, unassigned) [Example 4 D2E2] | > 0.01 | 0.001 to 0.01 | > 0.1 | B (B = 25 to 50-fold selective for hTREX1)
2 | Cc1cc(C(c2cc(F)ccc2Cl)C(C)c2nc(C(=O)Nc3cnoc3)c(O)c(=O)n2C)n(C)n1 (single isomer, unassigned) [Example 113 D1E1] | > 0.01 | > 0.01 | 0.01 to 0.1 | C (C = >50 fold selective for hTREX1)
3 | Cc1nnc(C(c2ccccc2Cl)C(C)c2nc(C(=O)Nc3cnoc3)c(O)c(=O)n2C)o1 (single isomer, unassigned) [Example 156 D1E1] | > 0.01 | > 0.01 | > 0.1 | A (A = <25 fold selective for hTREX1)
4 | Cc1cc(C(c2ccccc2C#N)C(C)c2nc(C(=O)Nc3cnoc3)c(O)c(=O)n2C)ccn1 (single isomer, unassigned) [Example 6 D1E2] | > 0.01 | 0.001 to 0.01 | > 0.1 | B (B = 25 to 50-fold selective for hTREX1)
5 | Cc1nc(C)c(C(c2ccccc2C#N)C(C)c2nc(C(=O)Nc3cnoc3)c(O)c(=O)n2C)nc1C (single isomer, unassigned) [Example 122 D2E1] | > 0.01 | 0.001 to 0.01 | > 0.1 | B (B = 25 to 50-fold selective for hTREX1)
6 | CC(c1nc(C(=O)Nc2cnoc2)c(O)c(=O)n1C)C(c1cn[nH]c1)c1ccccc1C#N (single isomer, unassigned) [Example 12 D2E1] | > 0.01 | 0.001 to 0.01 | > 0.1 | C (C = >50 fold selective for hTREX1)
7 | CC(c1nc(C(=O)Nc2cnoc2)c(O)c(=O)n1C)C(c1cnn(CC(C)(C)O)c1)c1ccccc1Cl (single isomer, unassigned) [Example 86 D1E1] | 0.001 to 0.01 | < 0.001 | > 0.1 | B (B = 25 to 50-fold selective for hTREX1)
8 | Cc1cnc(C)c(C(c2cc(F)ccc2Cl)C(C)c2nc(C(=O)Nc3cnoc3)c(O)c(=O)n2C)n1 (single isomer, unassigned) [Example 121 D2E1] | > 0.01 | > 0.01 | > 0.1 | B (B = 25 to 50-fold selective for hTREX1)
9 | CC(c1nc(C(=O)Nc2cnoc2)c(O)c(=O)n1C)C(c1cnn(CC2COC2)c1)c1cc(F)ccc1Cl (single isomer, unassigned) [Example 94 D1E1] | 0.001 to 0.01 | 0.001 to 0.01 | > 0.1 | B (B = 25 to 50-fold selective for hTREX1)
10 | CC(c1nc(C(=O)Nc2cnoc2)c(O)c(=O)n1C)C(c1cnn(C)c1)c1cc(C(F)(F)F)ccc1C#N (single isomer, unassigned) [Example 29 D1E1] | 0.001 to 0.01 | < 0.001 | < 0.01 | C (C = >50 fold selective for hTREX1)

Second part, led by results:

Row | IC50 (full length mouse TREX1) [µM] | IC50 (full length human TREX1) [µM] | IC50 (hTREX1) [µM] | SMILES | hTREX1 vs hTREX2 selectivity [1]
11 | 0.001 to 0.01 | 0.001 to 0.01 | > 0.1 | CC(c1nc(C(=O)Nc2cnoc2)c(O)c(=O)n1C)C(c1ccccc1)c1cccnc1C#N (single isomer, unassigned) [Example 155 D1E2] | C (C = >50 fold selective for hTREX1)
12 | 0.001 to 0.01 | < 0.001 | 0.01 to 0.1 | CC(c1nc(C(=O)Nc2cnoc2)c(O)c(=O)n1C)C(c1cn[nH]c1)c1ccccc1C#N (single isomer, unassigned) [Example 12 D1E1] | C (C = >50 fold selective for hTREX1)
13 | 0.001 to 0.01 | 0.001 to 0.01 | > 0.1 | CC(c1nc(C(=O)Nc2cnoc2)c(O)c(=O)n1C)C(c1cnn(CCN(C)C)c1)c1ccccc1C#N (single isomer, unassigned) [Example 33 D1E1] | C (C = >50 fold selective for hTREX1)
14 | 0.001 to 0.01 | < 0.001 | 0.01 to 0.1 | CCn1cc(C(c2cc(F)ccc2Cl)C(C)c2nc(C(=O)Nc3cnoc3)c(O)c(=O)n2C)cn1 (single isomer, unassigned) [Example 60 D1E1] | B (B = 25 to 50-fold selective for hTREX1)
15 | 0.001 to 0.01 | < 0.001 | < 0.01 | Cc1cnc(C)c(C(c2ccccc2C#N)C(C)c2nc(C(=O)Nc3cnoc3)c(O)c(=O)n2C)n1 (single isomer, unassigned) [Example 82 D1E1] | C (C = >50 fold selective for hTREX1)
16 | 0.001 to 0.01 | < 0.001 | 0.01 to 0.1 | Cc1cnc(C(c2ccccc2Cl)C(C)c2nc(C(=O)Nc3cnoc3)c(O)c(=O)n2C)cn1 (single isomer, unassigned) [Example 116 D1E2] | B (B = 25 to 50-fold selective for hTREX1)
17 | 0.001 to 0.01 | < 0.001 | 0.01 to 0.1 | CC(c1nc(C(=O)Nc2cnoc2)c(O)c(=O)n1C)C(c1cnn(CCN2CCOCC2)c1)c1ccccc1C#N (single isomer, unassigned) [Example 20 D1E1] | C (C = >50 fold selective for hTREX1)
18 | 0.001 to 0.01 | < 0.001 | 0.01 to 0.1 | CC(c1nc(C(=O)Nc2cnoc2)c(O)c(=O)n1C)C(c1cnn(C2COC2)c1)c1ccccc1C#N (single isomer, unassigned) [Example 106 D1E1] | B (B = 25 to 50-fold selective for hTREX1)
19 | 0.001 to 0.01 | 0.001 to 0.01 | > 0.1 | CC(c1nc(C(=O)Nc2cnoc2)c(O)c(=O)n1C)C(c1cnn(CCOC(F)(F)F)c1)c1cc(F)ccc1Cl (single isomer, unassigned) [Example 98 D1E1] | B (B = 25 to 50-fold selective for hTREX1)
20 | < 0.001 | < 0.001 | < 0.01 | Cc1ccc(C(c2ccccc2C#N)C(C)c2nc(C(=O)Nc3cnoc3)c(O)c(=O)n2C)cn1 (single isomer, unassigned) [Example 5 D1E2] | B (B = 25 to 50-fold selective for hTREX1)
21 | 0.001 to 0.01 | < 0.001 | < 0.01 | CC(c1nc(C(=O)Nc2cnoc2)c(O)c(=O)n1C)C(c1cnn(C)c1)c1ccc(F)cc1C#N (single isomer, unassigned) [Example 15 D1E1] | C (C = >50 fold selective for hTREX1)
22 | 0.001 to 0.01 | < 0.001 | > 0.1 | COCCn1nc(C)c(C(c2cc(F)ccc2C#N)C(C)c2nc(C(=O)Nc3cnoc3)c(O)c(=O)n2C)c1C (single isomer, unassigned) [Example 110 D1E1] | C (C = >50 fold selective for hTREX1)
23 | 0.001 to 0.01 | < 0.001 | > 0.1 | Cc1nn(C)c(C)c1C(c1cc(F)ccc1Cl)C(C)c1nc(C(=O)Nc2cnoc2)c(O)c(=O)n1C (single isomer, unassigned) [Example 154 D1E1] | B (B = 25 to 50-fold selective for hTREX1)
24 | 0.001 to 0.01 | < 0.001 | 0.01 to 0.1 | CC(c1nc(C(=O)Nc2cnoc2)c(O)c(=O)n1C)C(c1ccccc1Cl)n1cnc2ccccc21 (single isomer, unassigned) [Example 143 D1E1] | B (B = 25 to 50-fold selective for hTREX1)
